Where “and” joins values, the source holds several entries; their conditions need not be identical. Equal values may be shown once.
Tested on: WM3248 melanoma cells, 486 antibodies
Test: Reverse phase protein arrays (RPPA)
Type: cell-based, Human
Conditions: 5 uM
From the text: Pellets were snap frozen in liquid nitrogen and shipped to MD Anderson Cancer Center core RPPA facility for RPPA analysis (Table S5). Three biological replicates for each sample were generated.
Nomenclatures on the RPPA heatmaps: name_of_antibody.species_of_antibody.status_of_antibody. V - antibody validated; C - validation of antibody in progress; Q - antibody nonspecific; E – under evaluation; antibodies raised in M - mouse, G - goat, R - rabbit, or T - rat.

CN(C)c1cccc(Nc2cc(-c3ccccc3)nc(C3CCNCC3)n2)c1 [ARN22089, N1,N1-dimethyl-N3-(6-phenyl-2-(piperidin-4-yl)pyrimidin-4-yl)benzene-1,3-diamine]
DJ1.R.V RPPA level (replicates): 1.007 and 1.125 | DM.Histone.H3.R.V RPPA level (replicates): 0.950 and 1.152 and 1.117 | DM.K9.Histone.H3.M.V RPPA level (replicates): 1.035 and 0.996 | DNA.Ligase.IV.R.C RPPA level (replicates): 1.015 and 1.171 and 1.125 | DNA_POLG.R.V RPPA level (replicates): 1.082 and 0.866 and 0.834 | c.Jun_pS73.R.V RPPA level (replicates): 0.903 and 1.005 | c.Kit.R.V RPPA level (replicates): 1.119 and 0.884 and 0.682 | c.Met_pY1234_Y1235.R.V RPPA level (replicates): 0.935 and 1.110 and 1.140 | c.Myc.R.C RPPA level (replicates): 1.016 and 0.996 and 1.017 | cGAS.R.V RPPA level (replicates): 1.013 and 0.955 | cdc2_pY15.R.C RPPA level (replicates): 0.982 and 1.425 and 1.193 | cdc25C.R.V RPPA level (replicates): 0.985 and 0.925 and 0.943 | RPPA MYH11.R.C (single replicates): 1.049 and 0.899 and 0.794 | RPPA Myosin.IIa.R.C (single replicates): 0.881 and 0.604 | RPPA Myosin.IIa_pS1943.R.V (single replicates): 1.019 and 0.869 and 0.642 | RPPA Myt1.R.C (single replicates): 0.900 | RPPA N.Cadherin.R.V (single replicates): 1.025 and 0.927 and 1.105 | RPPA N.Ras.M.V (single replicates): 1.017 and 0.997 | RPPA NAPSIN.A.R.C (single replicates): 0.989 and 1.114 and 1.136 | RPPA NDRG1_pT346.R.V (single replicates): 0.757 and 1.000 and 1.113 | RPPA NDUFB4.R.V (single replicates): 1.030 and 0.897 | RPPA NRF2.R.C (single replicates): 0.980 and 1.023 and 1.172 | RPPA Notch1.R.V (single replicates): 0.979 and 0.930 | RPPA Notch1.cleaved.R.V (single replicates): 0.872 and 1.026 | RPPA Notch3.R.C (single replicates): 0.916 and 1.149 | RPPA Oct.4.R.C (single replicates): 1.033 and 1.165 and 1.085 | RPPA P.Cadherin.R.C (single replicates): 0.913 and 1.419 and 0.819 | RPPA PAI.1.M.V (single replicates): 0.893 and 0.953 and 1.083 | RPPA PAICS.R.C (single replicates): 1.002 and 0.988 and 0.707 | RPPA PAK1.R.V (single replicates): 1.101 | RPPA PAK4.R.V (single replicates): 0.901 and 0.983 | RPPA PAK_pS474_S602_S560.R.V (single replicates): 1.077 and 0.883 and 0.855 | RPPA PAK_pT423_T402.R.C (single replicates): 0.941 and 1.054 and 0.768 | RPPA PAR.R.C (single replicates): 1.057 and 2.014 and 0.910 | RPPA PARG.R.C (single replicates): 0.916 and 0.961 and 1.160 | RPPA PARP.R.V (single replicates): 0.918 and 1.359 and 0.791 | RPPA PAX6.R.V (single replicates): 0.958 and 1.096 | RPPA PAX8.R.C (single replicates): 1.084 and 0.915 and 0.888 | RPPA PCNA.M.C (single replicates): 0.983 and 0.768 | RPPA PD.1.R.V (single replicates): 1.028 and 0.932 and 1.016 | RPPA PD.L1.R.C (single replicates): 0.986 and 1.136 | RPPA PDH.M.V (single replicates): 1.030 and 0.955 and 1.162 | RPPA PDHA1.R.V (single replicates): 0.999 and 1.134 and 1.104 | RPPA PDHK1.R.C (single replicates): 0.895 and 1.143 and 1.132 | RPPA PDK1.R.V (single replicates): 0.979 and 1.236 and 0.914 | RPPA PDK1_pS241.R.V (single replicates): 1.012 and 1.286 and 1.116 | RPPA PEA.15.R.V (single replicates): 0.973 and 1.022 and 0.716 | RPPA PEA.15_pS116.R.V (single replicates): 1.025 and 1.082 | RPPA PERK.R.V (single replicates): 0.799 and 0.886 | RPPA PGM1.R.V (single replicates): 0.922 | RPPA PHGDH.R.C (single replicates): 1.026 and 1.054 and 1.162 | RPPA PHLPP.R.V (single replicates): 1.309 and 0.725 and 0.733 | RPPA PI3K.p85.R.C (single replicates): 0.979 | RPPA PI3K.p110.a.R.C (single replicates): 0.889 and 1.115 and 1.166 | RPPA PI3K.p110.b.M.C (single replicates): 1.076 and 0.970 and 0.893 | RPPA PKA.a.R.V (single replicates): 1.082 and 0.998 and 0.958 | RPPA PKC.a.b.II_pT638_T641.R.V (single replicates): 0.773 and 0.933 | RPPA PKC.b.II_pS660.R.V (single replicates): 0.932 and 1.415 and 1.139 | RPPA PKCa.R.V (single replicates): 0.879 and 2.309 and 1.199 | RPPA PKM2.R.C (single replicates): 0.777 | RPPA PLC.gamma1.R.V (single replicates): 1.266 and 0.848 and 0.796 | RPPA PLC.gamma1_pS1248.R.V (single replicates): 1.131 and 1.203 and 0.848 | RPPA PLC.gamma2_pY759.R.V (single replicates): 0.953 | RPPA PLK1.R.C (single replicates): 0.988 and 0.536 and 1.237 | RPPA PMS2.R.V (single replicates): 1.054 and 0.898 and 0.867 | RPPA PR.R.V (single replicates): 1.016 and 0.968 and 1.112 | RPPA PRAS40.M.C (single replicates): 1.006 and 0.977 and 0.990 | RPPA PRAS40_pT246.R.V (single replicates): 0.957 and 1.288 and 0.838 | RPPA PRC1_pT481.R.C (single replicates): 0.841 and 0.955 | RPPA PREX1.R.V (single replicates): 0.972 and 0.995 and 1.201 | RPPA PTEN.R.V (single replicates): 0.880 and 1.147 | RPPA PTPN12.R.V (single replicates): 1.009 and 1.217 and 1.054 | RPPA PYGB.R.V (single replicates): 0.990 and 0.966 and 0.675 | RPPA PYGM.M.C (single replicates): 1.013 and 0.953 and 0.526 | RPPA Patched.R.C (single replicates): 0.925 and 1.120 and 1.169 | RPPA Paxillin.R.C (single replicates): 0.754 and 1.008 and 1.170 | RPPA Pdcd4.R.C (single replicates): 0.973 and 1.288 and 1.207 | RPPA Porin.M.V (single replicates): 1.021 and 0.963 and 0.824 | RPPA Puma.R.C (single replicates): 1.003 and 0.771 | RPPA Pyk2_pY402.R.C (single replicates): 0.977 and 1.146 and 1.149 | RPPA RBM15.R.V (single replicates): 0.950 and 1.004 and 0.982

From publication PMC9127750, “Structure-based design of CDC42 effector interaction inhibitors for the treatment of cancer” (Cell reports, 2022)
